These are literature values, as cited in US20070196488A1, “Oral matrix formulations comprising licarbazepine” (priority 2004, published 2007).

Structures are written as SMILES.

In the data set the test system is epilepsy. The note with it: racemate compared with both pure enantiomers.

`NC(=O)N1c2ccccc2CC(O)c2ccccc21` (racemic) [Licarbazepine, 10,11-dihydro-10-hydroxy-5H-dibenz[b,f]azepine-5-carboxamide]: the efficacy against epilepsy result is on record as “equal efficacy”.
